Assay results taken from article PMC5937995 (Bioorganic & medicinal chemistry, 2018).
Residues, ends and D or L forms follow the SMILES beside them.

How the values were obtained:
[1] = cited from earlier work
PAR1 [2] = biological target: T1, PAR1 (Homo sapiens, UniProt P25116); test: PAR1
T1 sequence (P25116 22-425): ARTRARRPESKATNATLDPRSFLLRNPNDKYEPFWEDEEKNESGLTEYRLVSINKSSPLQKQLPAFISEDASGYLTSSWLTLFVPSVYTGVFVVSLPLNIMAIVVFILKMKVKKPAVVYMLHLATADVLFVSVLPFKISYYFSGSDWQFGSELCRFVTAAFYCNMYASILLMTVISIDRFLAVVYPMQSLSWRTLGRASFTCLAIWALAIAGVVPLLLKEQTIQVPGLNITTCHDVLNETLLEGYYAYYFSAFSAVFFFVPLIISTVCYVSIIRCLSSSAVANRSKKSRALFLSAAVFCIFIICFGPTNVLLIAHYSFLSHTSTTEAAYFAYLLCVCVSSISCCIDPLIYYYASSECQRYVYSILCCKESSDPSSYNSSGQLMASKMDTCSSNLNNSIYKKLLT

human platelets = settings: cited from earlier work; for IC50: read-out: potency in P-selectin assay, human platelets
PAR1 [3] = settings: platelet membranes; cited from earlier work
Aqueous solubility = type: physicochemical; settings: turbid suspensions observed at high concentrations
cardiac infarct size = settings: murine myocardial ischemia-reperfusion injury; cited from earlier work
PAR1 [4] = settings: cited from earlier work
[5] = 5 μM TFLLRN-NH2, EA.hy926 cells

CC(C)CC(=O)Nc1cccc(NC(=O)c2ccccc2Br)c1 [CJD-125]
plasma stability relative to ML161 [1]: improved plasma stability | activity in PAR1 iCa2+ assay (in words) (PAR1 [2]; [5]): less potent than ML161 and did not give a good concentration-response | potency relative to ML161 in platelet P-selectin assay (human platelets): equipotency

C#CCCC(=O)NCC[C@H](NC(=O)[C@H](Cc1ccc(F)c(F)c1)NC(=O)Nc1ccc2c(CN3CCCC3)nn(Cc3c(Cl)cccc3Cl)c2c1)C(=O)NCc1ccccc1 [DG-207, N-((S)-4-(Benzylamino)-3-((S)-2-(3-(1-(2,6-dichlorobenzyl)-3-(pyrrolidin-1-ylmethyl)-1H-indazol-6-yl)ureido)-3-(3,4-difluorophenyl)propanamido)-4-oxobutyl)pent-4-ynamide]
fold less potent than RWJ-58259 (PAR1 [2]; [5]): 15 fold

CCCC(=O)Nc1cccc(NC(=O)c2ccccc2Br)c1 [ML161]
inhibition of [3H]TRAP binding (PAR1 [3]): does not significantly inhibit binding | aqueous solubility (Aqueous solubility): low aqueous solubility | cardiac infarct size (cardiac infarct size): significantly decreased | mode of inhibition of SFLLRN-NH2 (human platelets; platelet P-selectin assay): non-competitive inhibitor | IC50 (human platelets): 260 nM

C#CCCC(=O)Nc1cccc(NC(=O)c2ccccc2Br)c1 [RR-10, 2-Bromo-N-(3-(pent-4-ynamido)phenyl)benzamide]
activity in PAR1 iCa2+ assay (in words) (PAR1 [2]; [5]): only modest inhibition of PAR1

CCCCC(=O)Nc1cccc(NC(=O)c2ccccc2Br)c1 [EMG-23, 2-Bromo-N-(3-pentanamidophenyl)benzamide]
activity in PAR1 iCa2+ assay (in words) (PAR1 [2]; [5]): poorly active

CCCCNc1cccc(NC(=O)c2ccccc2Br)c1 [RR-90]
IC50 (human platelets): 340 nM

CCOC(=O)N[C@@H]1CC[C@@H]2[C@@H](C1)C[C@H]1C(=O)O[C@H](C)[C@H]1[C@H]2/C=C/c1ccc(-c2cccc(F)c2)cn1 [Vorapaxar, reference compound]
aqueous solubility (Aqueous solubility): low aqueous solubility | IC50 (PAR1 [2]): 32 nM | % Inhibition (PAR1 [2]; in presence of 5 μM TFLLRN-NH2, EA.hy926 cells): 95%

CCCC(=O)Nc1cccc(NC(=O)c2ccccc2N=[N+]=[N-])c1 [DG-5, 2-Azido-N-(3-butyramidophenyl)benzamide]
activity in PAR1 iCa2+ assay (in words) (PAR1 [2]; [5]): only modest activity

NCC[C@H](NC(=O)[C@H](Cc1ccc(F)c(F)c1)NC(=O)Nc1ccc2c(CN3CCCC3)cn(Cc3c(Cl)cccc3Cl)c2c1)C(=O)NCc1ccccc1 [RWJ-56110]
mode of inhibition of radiolabeled PAR1 activating peptide binding (PAR1 [4]): competitive inhibitor

CC(C)C[C@H](NC(=O)[C@H](CC(C)C)NC(=O)[C@H](Cc1ccccc1)NC(=O)[C@@H](N)[C@@H](C)O)C(=O)N[C@@H](CCCNC(=N)N)C(=O)N[C@@H](CC(N)=O)C(N)=O [TFLLRN-NH2, reference compound] (H-TFLLRN-NH2)
EC50 (PAR1 [2]): 4.8 µM
